This experiment has as its target T1, TEK (TIE2) R849W (Homo sapiens, UniProt Q02763, R849W).
T1 construct: purchased Thermo Fisher Scientific (Life Technologies) SelectScreen
Description: SelectScreen LanthaScreen. The experiment is classed as binding. Conditions: read-out: % displacement. The procedure, abridged: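 NU5455 was profiled across the SelectScreen Broad panel of kinase activity and binding assays. Z'LYTE reactions such as CSF1R ran at apparent Km ATP, while the Adapta CAMK1 assay used ATP listed as 10. Values are given as percent.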
On the technique in general: In TR-FRET formats the signal depends on donor and acceptor labels being close together.

T1 sequence (Q02763 23-1124 R849W): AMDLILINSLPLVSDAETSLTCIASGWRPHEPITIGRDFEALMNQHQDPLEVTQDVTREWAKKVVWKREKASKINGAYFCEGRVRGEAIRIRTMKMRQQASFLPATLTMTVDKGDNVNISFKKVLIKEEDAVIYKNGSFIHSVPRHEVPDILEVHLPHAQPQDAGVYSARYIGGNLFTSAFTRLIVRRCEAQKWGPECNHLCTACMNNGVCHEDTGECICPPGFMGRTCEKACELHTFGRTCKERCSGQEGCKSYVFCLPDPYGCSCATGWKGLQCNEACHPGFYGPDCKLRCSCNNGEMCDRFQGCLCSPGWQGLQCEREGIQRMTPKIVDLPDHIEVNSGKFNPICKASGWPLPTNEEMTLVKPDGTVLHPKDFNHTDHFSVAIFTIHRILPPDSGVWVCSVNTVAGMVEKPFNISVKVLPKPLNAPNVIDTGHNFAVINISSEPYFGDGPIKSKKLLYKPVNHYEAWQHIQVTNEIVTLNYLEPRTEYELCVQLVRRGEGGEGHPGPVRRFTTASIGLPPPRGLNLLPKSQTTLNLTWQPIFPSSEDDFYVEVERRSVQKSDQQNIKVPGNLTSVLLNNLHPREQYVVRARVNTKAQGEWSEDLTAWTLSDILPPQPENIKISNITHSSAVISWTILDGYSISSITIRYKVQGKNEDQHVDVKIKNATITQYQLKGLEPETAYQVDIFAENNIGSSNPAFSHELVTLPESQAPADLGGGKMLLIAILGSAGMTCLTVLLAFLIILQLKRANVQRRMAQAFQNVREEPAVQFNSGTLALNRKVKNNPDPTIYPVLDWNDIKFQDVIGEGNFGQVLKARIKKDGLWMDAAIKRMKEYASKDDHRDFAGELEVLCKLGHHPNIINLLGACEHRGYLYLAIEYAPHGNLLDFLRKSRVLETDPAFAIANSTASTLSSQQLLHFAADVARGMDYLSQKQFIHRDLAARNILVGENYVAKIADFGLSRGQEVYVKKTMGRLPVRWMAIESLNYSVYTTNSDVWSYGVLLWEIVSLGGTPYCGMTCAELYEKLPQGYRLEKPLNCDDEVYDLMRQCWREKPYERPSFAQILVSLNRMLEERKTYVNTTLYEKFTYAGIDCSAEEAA

Take `CN(C(=O)CN1CCOCC1)c1ccc2sc3c(-c4cccc5c(=O)cc(N6CC7CCC(C6)O7)oc45)cccc3c2c1` [NU5455]: the inhibition at 1 µM is -3.3%.

The values above are taken from PMC6934184, “Selective DNA-PKcs inhibition extends the therapeutic index of localized radiotherapy and chemotherapy” (The Journal of Clinical Investigation, 2019).
